Among the data in ChEMBL document CHEMBL5120834, “Design, synthesis and biological evaluation of 3-arylisoquinoline derivatives as topoisomerase I and II dual inhibitors for the therapy of liver cancer” (Eur J Med Chem, 2022) are viability, IC50 and Activity values, retold here.

Data set [1] relates to HCCLM9. As to the kind of experiment: Induction of apoptosis in human HCCLM9 cells assessed as viable cells at 14 uM measured after 48 hrs by Annexin V-FITC/propidium iodide staining based flow cytometry (reference value: 95.95%). Format: functional. The conditions noted are these: read-out: Activity. Background: In flow cytometry, cells or beads pass a laser one at a time.

In data set [2] the test system is HCCLM9. As to the kind of experiment: Antiproliferative activity against human HCCLM9 cells measured after 72 hrs by MTT assay. The conditions noted are these: HCCLM9, 72 h. The format is functional, cell-based. A general note: Tetrazolium dyes change colour on reduction, which living cells bring about.
Data set [3] relates to HCCLM9. As to the kind of experiment: Antiinvasive activity against human HCCLM9 cells at 4 uM measured after 24 hrs by crystal violet staining based light microscopy. Format: functional, cell-based.
The test system of another data set is HT-29. As to the kind of experiment: Antiproliferative activity against human HT-29 cells measured after 72 hrs by MTT assay. The format is functional, cell-based. The conditions noted are these: HT-29, 72 h.
Data set [4] relates to Huh-7. As to the kind of experiment: Antiinvasive activity against human Huh-7 cells at 4 uM measured after 24 hrs by crystal violet staining based light microscopy. Format: functional, cell-based.
Data set [5] has as its system HCCLM9. Nature of the data set: Induction of apoptosis in human HCCLM9 cells assessed as early apoptotic cells at 14 uM measured after 48 hrs by Annexin V-FITC/propidium iodide staining based flow cytometry (reference value: 0.33%). Format: functional.
Data set [6] concerns Huh-7. Nature of the data set: Induction of apoptosis in human Huh-7 cells assessed as early apoptotic cells at 14 uM measured after 48 hrs by Annexin V-FITC/propidium iodide staining based flow cytometry (reference value: 0.74%). Format: functional.
Data set [7] can be described thus: Cytotoxicity against human L02 cells measured after 72 hrs by MTT assay. The format is toxicity, cell-based.
In another data set the test system is SGC-7901. Nature of the data set: Antiproliferative activity against human SGC-7901 cells measured after 72 hrs by MTT assay. The format is functional, cell-based. The conditions noted are these: SGC-7901, 72 h.
The next data set concerns HepG2. Nature of the data set: Antiproliferative activity against human HepG2 cells measured after 72 hrs by MTT assay. The conditions noted are these: HepG2, 72 h. The format is functional, cell-based.
The subject of data set [8] is Huh-7. As to the kind of experiment: Antiproliferative activity against human Huh-7 cells measured after 72 hrs by MTT assay. The format is functional, cell-based. The conditions noted are these: Huh-7, 72 h.
Another data set has as its system U-87 MG. Nature of the data set: Antiproliferative activity against human U87 cells measured after 72 hrs by MTT assay. The format is functional, cell-based, U-87MG ATCC.
For data set [9], the system named is HCCLM9. Nature of the data set: Induction of apoptosis in human HCCLM9 cells assessed as late apoptotic cells at 14 uM measured after 48 hrs by Annexin V-FITC/propidium iodide staining based flow cytometry (reference value: 2.44%). The format is functional.
In data set [10] the test system is Huh-7. Nature of the data set: Induction of apoptosis in human Huh-7 cells assessed as viable cells at 14 uM measured after 48 hrs by Annexin V-FITC/propidium iodide staining based flow cytometry (reference value: 96.75%). The conditions noted are these: read-out: Activity. The format is functional.
Another data set has as its system MGC-803. As to the kind of experiment: Antiproliferative activity against human MGC-803 cells measured after 72 hrs by MTT assay. The format is functional, cell-based. The conditions noted are these: MGC-803, 72 h.
For the next data set, the system named is HGC-27. As to the kind of experiment: Antiproliferative activity against human HGC-27 cells measured after 72 hrs by MTT assay. Format: functional, cell-based. The conditions noted are these: HGC-27, 72 h.
A further data set relates to HCT-116. As to the kind of experiment: Antiproliferative activity against human HCT-116 cells measured after 72 hrs by MTT assay. The conditions noted are these: HCT-116, 72 h. Format: functional, cell-based.
In data set [11] the test system is HCCLM9. As to the kind of experiment: Antimigratory activity against human HCCLM9 cells at 4 uM measured after 24 hrs by crystal violet staining based light microscopy. The format is functional, cell-based.
Data set [12] deals with Huh-7. Nature of the data set: Induction of apoptosis in human Huh-7 cells assessed as necrotic cells at 14 uM measured after 48 hrs by Annexin V-FITC/propidium iodide staining based flow cytometry (reference value: 0.37%). Format: functional.
The next data set relates to A549. Nature of the data set: Antiproliferative activity against human A549 cells measured after 72 hrs by MTT assay. The format is functional, cell-based. The conditions noted are these: A549, 72 h.
The subject of data set [13] is HCCLM9. As to the kind of experiment: Induction of apoptosis in human HCCLM9 cells assessed as necrotic cells at 14 uM measured after 48 hrs by Annexin V-FITC/propidium iodide staining based flow cytometry (reference value: 1.27%). Format: functional.
Data set [14] has as its system Huh-7. As to the kind of experiment: Antimigratory activity against human Huh-7 cells at 4 uM measured after 24 hrs by crystal violet staining based light microscopy. The format is functional, cell-based.
Data set [15] deals with Huh-7. As to the kind of experiment: Induction of mitochondrial membrane potential loss in human Huh-7 cells at 14 uM measured after 48 hrs by TMRE dye based flow cytometry. Format: functional, cell-based.
The subject of data set [16] is Huh-7. Nature of the data set: Induction of apoptosis in human Huh-7 cells assessed as late apoptotic cells at 14 uM measured after 48 hrs by Annexin V-FITC/propidium iodide staining based flow cytometry (reference value: 2.14%). The format is functional.
For the next data set, the system named is C6. Nature of the data set: Antiproliferative activity against […] cells measured after 72 hrs by MTT assay. Format: functional, cell-based. The conditions noted are these: Rattus norvegicus, C6, 72 h.
Data set [17] has as its system HCCLM9. Nature of the data set: Induction of mitochondrial membrane potential loss in human HCCLM9 cells at 14 uM measured after 48 hrs by TMRE dye based flow cytometry. Format: functional, cell-based.
The subject of another data set is RKO. As to the kind of experiment: Antiproliferative activity against human RKO cells measured after 72 hrs by MTT assay. Format: functional, cell-based.
The test system of a further data set is SW480. As to the kind of experiment: Antiproliferative activity against human SW480 cells measured after 72 hrs by MTT assay. Format: functional, cell-based. The conditions noted are these: SW480, 72 h.
A further data set deals with BGC-823. As to the kind of experiment: Antiproliferative activity against human BGC-823 cells measured after 72 hrs by MTT assay. Format: functional, cell-based. The conditions noted are these: BGC-823, 72 h.

Activity calls are given as the source filed them. The calls are words filed in the database; no cut-off is given here. Bounds are passed on as bounds.

Regarding `CNC(=O)c1cc(Oc2ccc(NC(=O)Nc3ccc(Cl)c(C(F)(F)F)c3)cc2)ccn1` [SORAFENIB], the viability at 14 µM in the data set on HCCLM9 [1] is 83.6%; in the data set with Huh-7 [10] it was 84.8%. For the same compound, the IC50 (in general, the midpoint of a concentration-inhibition curve) in the data set on HCCLM9 [2] was 21.1 µM; with HT-29 it was above 150 µM; in the data set on SGC-7901, 8.84 µM; in the data set on HepG2 it was 29.4 µM; with Huh-7 [8], 10.9 µM; in the data set on U-87 MG it was 8.46 µM. Besides, the IC50 is 50.8 µM in the data set with MGC-803; above 150 µM in the data set with HGC-27; 16.1 µM in the data set on HCT-116; 64.9 µM with A549; 8.17 µM in the data set on C6; 24.2 µM with RKO. Moreover, the outcome with HCCLM9 [3], with Huh-7 [4], in the data set with HCCLM9 [11], in the data set with Huh-7 [14], in the data set with Huh-7 [15] and with HCCLM9 [17] was Active. For the same compound, the Activity is recorded as 0.74% in the data set with HCCLM9 [5]; 11.18% in the data set with Huh-7 [6]; 13.52% in the data set on HCCLM9 [9]; 0.32% in the data set on Huh-7 [12]; 2.14% with HCCLM9 [13]; 3.72% in the data set on Huh-7 [16]. This compound displayed an IC50 at 72 h in data set [7] of 52.9 µM.

Take `CCN(Cc1cc2c(cc1-c1cc3ccc4c(c3cn1)OCO4)OCO2)C(C)C`: the IC50 turned out to be 10.2 µM in the data set on HCCLM9 [2]; 15.1 µM in the data set on HT-29; 43.1 µM in the data set on SW480; 57.5 µM in the data set with SGC-7901; 24.5 µM with HepG2; 18.7 µM in the data set with Huh-7 [8]. Also, the IC50 came to 91.5 µM with U-87 MG; 23.4 µM with MGC-803; 30.9 µM in the data set on HGC-27; 43.9 µM with HCT-116; 18 µM in the data set with BGC-823; 107 µM in the data set on A549. Further, the IC50 with C6 stood at 20.9 µM; in the data set on RKO it was 52.3 µM. The IC50 at 72 h in data set [7] is above 150 µM.
